Key:
[1] = tested on: secretion of gastric acid; assay: Inhibitory action against the secretion of gastric acid (Test II), Heidenhain pouch dogs, histamine stimulated; assay type: in vivo, male beagle dogs; settings: Canis lupus familiaris, Heidenhain pouch dog, histamine 160 ug/kg/hr, intravenous, read-out: Suppresive action on secretion of gastric acid (%)
Experimental: Heidenhain pouch dogs produced from male beagle dogs were fasted. To the dogs were then administered intarvenously histamine hydrochloride (gastric juice secretion inducing agent) continuously at a dose of 160 ug/kg/hr. The gastric juice was collected at an interval of 15 min. to measure the amount of gastric juice and acid output to determine an acid secretion amount (mEq/15 min).
The test compound was intravenously administered to the dogs at one hour after the initiation of histamine administration.
The inhibitory action was determined by comparing the acid secretion amount, with the corresponding amount of a control dog prepared in the same manner except that a vehicle alone was administered.

H^+ +K^+ ATPase [2] = molecular target: T1, H^+ +K^+ ATPase (Sus scrofa, UniProt P19156); assay: H+ + K+ ATPase inhibitory effects (b) pig gastric mucosa; assay type: biochemical; settings: pig gastric mucosa vesicle; incubated 37° C., 30 min, pH 5.5; read-out: H+ + K+ ATPase inhibitory action (IC50)
T1 construct: Gastric acid secretory cells of a pig gastric mucosa were isolated; from tissue; host or cells: pig gastric mucosa, vesicles from gastric acid secretory cells (Ficoll density gradient)
Experimental: Gastric acid secretory cells of a pig gastric mucosa were isolated in the same manner as in the test for rabbit gastric mucosa. A vesicle containing H^+ +K^+ ATPase was prepared by centrifuging the cells in Ficoll of discontinuous density gradient. The enzyme and each test compound were incubated at 37° C. for 30 min. in a solution which contained 2 mM of a bisTRIS-acetate buffer (pH 5.5). To the resulting mixture were added a solution of 37.5 mM of bisTRIS-acetate buffer solution (pH 7.4), 2 mM of magnesium chloride, 2 mM of ATP and 5 mM of potassium chloride, and the mixture was then heated to 37° C. for 10 min. for performing a reaction. The reaction was terminated by addition of 5% trichloroacetic acid solution, and an inorganic phosphorus liberated was quantitatively measured by Fiske-Subbarow method. The ATPase activity was determined from the obtained inorganic phosphorus value.
(§1) The above procedure was repeated except for not using potassium chloride to determine an ATPase activity in the absence of potassium chloride.
The desired […] ATPase activity was calculated by subtracting the ATPase activity value determined in the absence of KCl from the ATPase activity value determined in the presence of KCl.

H^+ +K^+ ATPase [3] = molecular target: T2, H^+ +K^+ ATPase (Oryctolagus cuniculus, UniProt P27112); assay: H+ + K+ ATPase inhibitory effects (a) rabbit gastric mucosa; assay type: biochemical; settings: rabbit gastric mucosa vesicle; 2×10^-4 M test compound, pH 6.0, 25 min preincubation; read-out: H+ + K+ ATPase inhibitory action (%)
T2 construct: gastric acid secretory cells of a rabbit gastric mucosa were isolated; from tissue; host or cells: rabbit gastric mucosa, vesicles from gastric acid secretory cells (Ficoll density gradient)
Experimental: Following the method of Forte et al (J. Applied Physiol., 32, 714-717 (1972)), gastric acid secretory cells of a rabbit gastric mucosa were isolated. A vesicle containing H^+ +K^+ ATPase was prepared by centrifuging the cells in Ficoll of discontinuous density gradient. After the enzyme was incubated at room temperature for 25 min. in 0.5 ml of a solution which contained 5 mM of an imidazole buffer (pH 6.0) and 2×10^-4 M of each test compound, the mixture was heated to 37° C. The mixture was then allowed to stand for further 5 min. To the mixture was added 0.5 ml of a solution which contained 4 mM of magnesium chloride, 80 mM of an imidazole buffer (pH 7.4), 20 mM of potassium chloride and 4 mM of ATP. The resulting mixture was reacted at 37° C. for 15 min. and 1 ml of a 24% trichloroacetic acid was then added to terminate the reaction. The inorganic phosphorus liberated was quantitatively determined by the method proposed by Taussky and Shorr (J. Biol. Chem., 202, […] (1953)). The ATPase activity was determined from the obtained inorganic phosphorus value.
as §1
The desired K^+ -dependent ATPase activity was calculated by subtracting the ATPase activity value determined in the absence of KCl from the ATPase activity value determined in the presence of KC1.

beagle dogs = assay: Acute toxicity test, beagle dogs; assay type: in vivo; settings: oral, 45 mg/kg/day for two weeks
Experimental: (§2) 2-[(2-Isobutylamino)benzylsulfinyl]imidazole (Example No. 10) was orally administered to rats and beagle dogs at a dose of 45 mg/kg/day for two weeks.

rats = assay: Acute toxicity test, rats; assay type: in vivo; settings: oral, 45 mg/kg/day for two weeks
Experimental: as §2

[4] = tested on: secretion of gastric acid; assay: Inhibitory action against the secretion of gastric acid (Test I), pylorus ligated rats; assay type: in vivo, Male Donryu rats; settings: rat, pylorus ligation, intraduodenal, 4 hours, acid output vs control
Experimental: Male Donryu rats having a body weight of 200 to 250 g were fasted (while allowing free access to water) for 24 hrs. in accordance with the conventional method [Shay, H. et al, Gastroenterology, 5, 43-61 (1945)]. Under ether anesthesia the pylorus was ligated and each test compound was administered intraduodenally. Four hours later, each rat was killed and the stomach was removed to collect the gastric juice. The inhibitory action was determined by comparing the acid output which was determined by titration to pH 7.0 with 0.1-N NaOH by means of an automatic titrator, with the corresponding value of control rat prepared in the same manner except that a vehicle alone was administered.

T2 sequence (P27112 2-1035 limits assumed): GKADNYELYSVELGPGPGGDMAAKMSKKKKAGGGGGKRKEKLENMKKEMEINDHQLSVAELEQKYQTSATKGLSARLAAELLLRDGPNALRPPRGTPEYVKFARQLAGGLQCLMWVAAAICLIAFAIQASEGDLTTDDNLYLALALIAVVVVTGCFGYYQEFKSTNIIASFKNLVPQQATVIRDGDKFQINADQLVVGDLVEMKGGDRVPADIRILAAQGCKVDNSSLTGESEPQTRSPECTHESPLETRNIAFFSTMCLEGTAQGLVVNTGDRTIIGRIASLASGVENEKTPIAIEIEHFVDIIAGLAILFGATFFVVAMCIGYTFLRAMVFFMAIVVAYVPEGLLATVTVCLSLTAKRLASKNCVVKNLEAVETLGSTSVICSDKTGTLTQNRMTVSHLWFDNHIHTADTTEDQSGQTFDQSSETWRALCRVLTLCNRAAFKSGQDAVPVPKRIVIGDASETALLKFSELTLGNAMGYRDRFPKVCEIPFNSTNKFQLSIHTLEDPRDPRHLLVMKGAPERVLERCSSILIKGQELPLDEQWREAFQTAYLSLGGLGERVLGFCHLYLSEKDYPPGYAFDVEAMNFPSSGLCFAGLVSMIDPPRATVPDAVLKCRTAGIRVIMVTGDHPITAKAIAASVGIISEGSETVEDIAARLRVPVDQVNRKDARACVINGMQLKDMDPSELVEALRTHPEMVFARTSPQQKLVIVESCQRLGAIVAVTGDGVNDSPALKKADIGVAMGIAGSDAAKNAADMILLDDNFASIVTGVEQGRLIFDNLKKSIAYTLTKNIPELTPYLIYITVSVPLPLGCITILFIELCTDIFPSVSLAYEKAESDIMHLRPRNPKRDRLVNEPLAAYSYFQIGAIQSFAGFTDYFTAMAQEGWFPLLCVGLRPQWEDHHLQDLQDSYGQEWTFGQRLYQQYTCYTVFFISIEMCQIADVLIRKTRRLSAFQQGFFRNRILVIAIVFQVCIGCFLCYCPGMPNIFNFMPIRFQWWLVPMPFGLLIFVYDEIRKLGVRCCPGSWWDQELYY
T2 sequence (P18597 whole entry partner): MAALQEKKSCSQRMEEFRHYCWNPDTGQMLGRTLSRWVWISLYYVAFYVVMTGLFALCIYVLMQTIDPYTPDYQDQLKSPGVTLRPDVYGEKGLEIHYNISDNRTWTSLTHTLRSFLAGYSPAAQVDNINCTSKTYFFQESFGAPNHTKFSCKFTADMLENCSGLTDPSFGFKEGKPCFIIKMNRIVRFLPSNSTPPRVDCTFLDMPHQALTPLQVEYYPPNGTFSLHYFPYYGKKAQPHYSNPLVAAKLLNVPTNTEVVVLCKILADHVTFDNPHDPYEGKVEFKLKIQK
T1 sequence (P19156 2-1034 limits assumed): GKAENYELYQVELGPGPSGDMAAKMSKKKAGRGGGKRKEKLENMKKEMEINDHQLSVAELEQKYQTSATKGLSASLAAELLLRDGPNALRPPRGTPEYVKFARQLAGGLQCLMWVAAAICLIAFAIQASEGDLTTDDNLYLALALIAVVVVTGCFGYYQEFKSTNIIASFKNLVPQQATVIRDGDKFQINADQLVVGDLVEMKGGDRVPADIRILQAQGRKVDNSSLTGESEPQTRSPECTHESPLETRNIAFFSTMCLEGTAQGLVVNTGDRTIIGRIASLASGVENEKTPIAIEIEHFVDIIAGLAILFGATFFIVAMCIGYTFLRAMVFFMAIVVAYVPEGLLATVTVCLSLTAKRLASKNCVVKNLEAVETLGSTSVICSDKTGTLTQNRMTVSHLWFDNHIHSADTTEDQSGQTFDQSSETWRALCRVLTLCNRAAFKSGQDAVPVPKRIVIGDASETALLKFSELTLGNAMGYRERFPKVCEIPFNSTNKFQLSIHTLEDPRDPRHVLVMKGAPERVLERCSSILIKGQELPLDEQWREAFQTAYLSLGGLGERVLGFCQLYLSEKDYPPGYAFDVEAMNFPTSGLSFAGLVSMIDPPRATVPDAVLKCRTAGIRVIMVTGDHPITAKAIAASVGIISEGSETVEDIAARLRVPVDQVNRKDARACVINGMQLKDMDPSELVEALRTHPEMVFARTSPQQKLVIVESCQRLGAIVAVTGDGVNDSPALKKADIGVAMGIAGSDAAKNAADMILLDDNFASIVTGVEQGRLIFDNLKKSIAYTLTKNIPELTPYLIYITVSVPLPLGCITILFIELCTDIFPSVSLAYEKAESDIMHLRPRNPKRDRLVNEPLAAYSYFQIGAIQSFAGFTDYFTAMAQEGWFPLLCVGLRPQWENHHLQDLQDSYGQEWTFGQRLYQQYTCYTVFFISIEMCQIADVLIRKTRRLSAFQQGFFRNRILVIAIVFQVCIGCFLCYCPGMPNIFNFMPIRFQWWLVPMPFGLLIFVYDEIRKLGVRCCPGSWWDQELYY
T1 sequence (P18434 whole entry partner): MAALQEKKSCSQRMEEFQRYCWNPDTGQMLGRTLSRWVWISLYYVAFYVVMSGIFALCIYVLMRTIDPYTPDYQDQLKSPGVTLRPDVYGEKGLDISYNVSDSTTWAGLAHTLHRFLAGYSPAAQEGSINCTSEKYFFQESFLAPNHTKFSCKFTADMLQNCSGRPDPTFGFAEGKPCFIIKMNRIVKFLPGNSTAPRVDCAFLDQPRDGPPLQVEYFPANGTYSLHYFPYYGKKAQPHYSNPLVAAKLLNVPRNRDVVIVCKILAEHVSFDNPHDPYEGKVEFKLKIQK

| Compound | inhibition in vivo at 3 mg/kg [1] | Suppresive action on secretion of gastric acid (%) ([4]; 10 mg/kg) | Suppresive action on secretion of gastric acid (%) ([4]; 30 mg/kg) | inhibition in vivo at 1 mg/kg [1] | further results |
| --- | --- | --- | --- | --- | --- |
| CNc1ccccc1C[S+]([O-])c1nc2c([nH]1)CCCC2 (stereo not shown) [Example No. 2, 2-(2-methylaminobenzylsulfinyl)-4,5,6,7-tetrahydro-1H-benzimidazole] | 53% |  |  |  | IC50 (H^+ +K^+ ATPase [2]): 1800 nM |
| CNc1ccccc1C[S+]([O-])c1ncc[nH]1 (stereo not shown) [Example No. 8, 2-(2-methylaminobenzylsulfinyl)imidazole] |  |  |  |  | IC50 (H^+ +K^+ ATPase [2]): 2800 nM |
| CC(C)CNc1ccccc1CSc1ncc[nH]1 [Example No. 9, 2-[(2-isobutylamino)benzylthio]imidazole] | 11% |  |  |  |  |
| CC(C)CNc1ccccc1C[S+]([O-])c1ncc[nH]1 (stereo not shown) [Example No. 10, 2-[(2-isobutylamino)benzylsulfinyl]imidazole] | 81% | 56.2% | 87.0% |  | inhibition at 200 µM (H^+ +K^+ ATPase [3]): 97.2%; Acute toxicity: noticeable change (beagle dogs): no noticeable change; Acute toxicity: noticeable change (rats): no noticeable change |
| CNc1ccc(C)cc1C[S+]([O-])c1ncc[nH]1 (stereo not shown) [Example No. 14, 2-[(5-methyl-2-methylamino)benzylsulfinyl]imidazole] | 97% | 82.2% | 98.6% |  | inhibition at 200 µM (H^+ +K^+ ATPase [3]): 90.8% |
| CC(C)Nc1ccccc1C[S+]([O-])c1ncc[nH]1 (stereo not shown) [Example No. 23, 2-[(2-isopropylamino)benzylsulfinyl]imidazole] | 66% |  |  |  |  |
| CCNc1ccccc1C[S+]([O-])c1ncc[nH]1 (stereo not shown) [Example No. 25, 2-[(2-ethylamino)benzylsulfinyl]imidazole] | 80% | 74.0% | 93.3% |  | inhibition at 200 µM (H^+ +K^+ ATPase [3]): 87.5% |
| [O-][S+](Cc1ccccc1NCc1ccccc1)c1ncc[nH]1 (stereo not shown) [Example No. 27, 2-[(2-benzylamino)benzylsulfinyl]imidazole] | 57% |  |  |  |  |
| COc1ccc(NCC(C)C)c(C[S+]([O-])c2ncc[nH]2)c1 (stereo not shown) [Example No. 29, 2-[(2-isobutylamino-5-methoxy)benzylsulfinyl]imidazole] | 81% | 30.8% | 89.0% | 30% |  |
| CNc1cccc(C)c1C[S+]([O-])c1ncc[nH]1 (stereo not shown) [Example No. 33, 2-[(2-methyl-6-methylamino)benzylsulfinyl]imidazole] |  | 92.9% | 91.4% | 70% |  |
| CNc1ccccc1C[S+]([O-])c1nc(C)c[nH]1 (stereo not shown) [Example No. 37, 4-methyl-2-[(2-methylamino)benzylsulfinyl]imidazole] | 50% |  |  |  |  |
| COc1cccc(NCC(C)C)c1C[S+]([O-])c1ncc[nH]1 (stereo not shown) [Example No. 41, 2-[(2-isobutylamino-6-methoxy)benzylsulfinyl]imidazole] | 97% |  |  | 66% |  |
| Cc1cccc(NCC(C)C)c1C[S+]([O-])c1ncc[nH]1 (stereo not shown) [Example No. 45, 2-[(2-isobutylamino-6-methyl)benzylsulfinyl]imidazole] |  | 86.8% | 90.3% | 82% |  |
| Cc1ccc(C[S+]([O-])c2ncc[nH]2)c(NCC(C)C)c1 (stereo not shown) [Example No. 47, 2-[(2-isobutylamino-4-methyl)benzylsulfinyl]imidazole] |  |  |  | 87% |  |
